According to patent US20230013602A1, “NOVEL IMIDAZOPYRAZINE DERIVATIVES” (Hoffmann-La Roche Inc., priority 2018, published 2023):
Structures can show the parent of a compound that is named as a salt.

Each compound was assayed on Acinetobacter baumannii ATCC17961 (assay: Antimicrobial susceptibility testing, 90% growth inhibitory concentration (IC90) determination). Conditions: 90% growth inhibitory concentration, Acinetobacter baumannii ATCC17961, Iso-Sensitest broth, OD 600 nm over 16 h; read-out: ATCC17961 IC90.
Format: cell-based
Method: (§1) The in vitro antimicrobial activity of the compounds was determined according to the following procedure:
(§2) The assay used a 10-points Iso-Sensitest broth medium to measure quantitatively the in vitro activity of the compounds against Acinetobacter baumannii ATCC 17978 and Acinetobacter baumannii ATCC17961.
(§3) Stock compounds in DMSO were serially twofold diluted (e.g. range from 50 to 0.097 μM final concentration) in 384 wells microtiter plates and inoculated with 49 μl the bacterial suspension in Iso-Sensitest medium to have a final cell concentration of ˜5×10^(5) CFU/ml in a final volume/well of 50 ul/well. Microtiter plates were incubated at 35+2° C.
(§4) Bacterial cell growth was determined with the measurement of optical density at X=600 nm each 20 minutes over a time course of 16 h. Growth inhibition was calculated during the logarithmic growth of the bacterial cells with determination of the concentration inhibiting 50% (IC50) and 90% (IC90) of the growth.
(§5) Table 1 provides the 90% growth inhibitory concentrations (IC90) in micromoles per liter of the compounds of present invention obtained against the strain Acinetobacter baumannii ATCC17978 and Acinetobacter baumannii ATCC17961.

In order of rising IC90:
1. COc1ccc(-c2cnc3c(Nc4ccc(C(=O)N[C@H]5C[C@@H](NC(=O)[C@@H]6C[C@@H](O)CN6)C5)c(C)c4)nccn23)c(F)c1F [Example 66, (2S,4R)-N-((1s,3R)-3-(4-((3-(2,3-difluoro-4-methoxyphenyl)imidazo[1,2-a]pyrazin-8-yl)amino)-2-methylbenzamido)cyclobutyl)-4-hydroxypyrrolidine-2-carboxamide]  40 nM
2. COc1ccc(-c2cnc3c(Nc4ccc(C(=O)NC5CN(C(=O)[C@@H]6C[C@@H](O)CN6)C5)c(C)c4)nccn23)c(F)c1F [Example 65, 4-((3-(2,3-difluoro-4-methoxyphenyl)imidazo[1,2-a]pyrazin-8-yl)amino)-N-(1-((2S,4R)-4-hydroxypyrrolidine-2-carbonyl)azetidin-3-yl)-2-methylbenzamide]  47 nM
3. COc1ccc(-c2cnc3c(Nc4ccc(C(=O)N[C@@H]5CCN(C(=O)[C@@H]6C[C@@H](O)CN6)C5)c(C)c4)nccn23)c(F)c1F [Example 63]  55 nM
4. COc1ccc(-c2cnc3c(Nc4ccc(C(=O)N[C@H]5CCN(C(=O)[C@@H]6C[C@@H](O)CN6)C5)c(C)c4)nccn23)c(F)c1F [Example 64, 4-((3-(2,3-difluoro-4-methoxyphenyl)imidazo[1,2-a]pyrazin-8-yl)amino)-N-((S)-1-((2S,4R)-4-hydroxypyrrolidine-2-carbonyI)pyrrolidin-3-yl)-2-methylbenzamide]  81 nM
5. COc1ccc(-c2cnc3c(Nc4ccc(C(=O)N[C@H]5C[C@H](NC(=O)[C@@H]6C[C@@H](O)CN6)C5)c(C)c4)nccn23)c(F)c1F [Example 67, (2S,4R)-N-((1r,3 S)-3-(4-((3-(2,3-difluoro-4-methoxyphenyl)imidazo[1,2-a]pyrazin-8-yl)amino)-2-methylbenzamido)cyclobutyl)-4-hydroxypyrrolidine-2-carboxamide]  101 nM
6. CCc1cc(Nc2nccn3c(-c4ccc(OC)c(F)c4F)cnc23)ccc1C(=O)NC12CC(NC(=O)[C@@H]3C[C@@H](O)CN3)(C1)C2 [Example 70, (2S,4R)-N-(3-(4-((3-(2,3-difluoro-4-methoxyphenyl)imidazo[1,2-a]pyrazin-8-yl)amino)-2-ethylbenzamido)bicyclo[1.1.1]pentan-1-yl)-4-hydroxypyrrolidine-2-carboxamide dihydrochloride]  197 nM
7. COc1ccc(-c2cnc3c(Nc4ccc(C(=O)N[C@H]5CC[C@H](NC(=O)[C@@H]6C[C@@H](O)CN6)CC5)c(C)c4)nccn23)c(F)c1F [Example 62, (2S,4R)-N-((1r,4S)-4-(4-((3-(2,3-difluoro-4-methoxyphenyl)imidazo[1,2-a]pyrazin-8-yl)amino)-2-methylbenzamido)cyclohexyI)-4-hydroxypyrrolidine-2-carboxamide]  268 nM
8. CCc1cc(Nc2nccn3c(-c4ccc(OC)c(F)c4F)cnc23)ccc1C(=O)N[C@@H]1CCC[C@@H]1N [Example 71, N-((1R,2S)-2-aminocyclopentyl)-4-((3-(2,3-difluoro-4-methoxyphenyl)imidazo[1,2-a]pyrazin-8-yl)amino)-2-ethylbenzamide dihydrochloride]  712 nM

Same assay, conditions: Acinetobacter baumannii, ATCC17961, 16 h, read-out: ATCC17961 IC90

In the case of `CCc1cc(Nc2nccn3c(-c4ccc(OC)c(F)c4F)cnc23)ccc1C(=O)N[C@H]1[C@@H]2CNC[C@@H]21` [Example 72, rac-N-((1R,5 S,6s)-3-azabicyclo[3.1,0]hexan-6-yI)-4-((3-(2,3-difluoro-4-methoxyphenyl)imidazo[1,2-a]pyrazin-8-yl)amino)-2-ethylbenzamide hydrochloride], the IC90 was 295 nM.

What follows are compounds tested on Acinetobacter baumannii ATCC 17978 in the same assay as above. Conditions: Acinetobacter baumannii ATCC17978, Iso-Sensitest broth, OD 600 nm over 16 h.
Format: cell-based
Method: as §1, §2, §3, §4, §5

In order of rising IC90:
1. CCc1cc(Nc2nccn3c(-c4ccc(OC)c(F)c4F)cnc23)ccc1C(=O)NC1(CO)COC1 [Example 27, 4-[[3-(2,3-difluoro-4-methoxyphenyl)imidazo[1,2-a]pyrazin-8-yl]amino]-2-ethyl-N-[3-(hydroxymethyl)oxetan-3-yl]benzamide]  180 nM
2. CCc1cc(Nc2nccn3c(-c4ccc(OC)c(F)c4F)cnc23)ccc1C(=O)N[C@@H]1CCNC1 [Example 3, (R)-4-((3-(2,3-difluoro-4-methoxyphenyl)imidazo[1,2-a]pyrazin-8-yl)amino)-2-ethyl-N-(pyrrolidin-3-yl)benzamide hydrochloride]  260 nM
3. CCc1cc(Nc2nccn3c(-c4ccc(OC)c(F)c4F)cnc23)ccc1C(=O)N[C@H]1CCNC1 [Example 28, 4-[[3-(2,3-difluoro-4-methoxyphenyl)imidazo[1,2-a]pyrazin-8-yl]amino]-2-ethyl-N-[(3S)-pyrrolidin-3-yl]benzamide;hydrochloride]  370 nM
4. COc1ccc(-c2cnc3c(Nc4ccc(C(=O)NC5COC(CN)OC5)c(C)c4)nccn23)cc1 (centres unmarked) [Example 7, N-(2-(aminomethyl)-1,3-dioxan-5-yl)-4-((3-(4-methoxyphenyl)imidazo [1,2-a]pyrazin-8-yl)amino)-2-methylbenzamide]  540 nM
5. COc1ccc(-c2cnc3c(Nc4ccc(C(=O)NC5CCN(C6CCS(=O)(=O)CC6)CC5)c(C)c4)nccn23)cc1F [Example 24, N-[1-(1,1-dioxothian-4-yl)piperidin-4-yl]-4-[[3-(3-fluoro-4-methoxyphenyl)imidazo[1,2-a]pyrazin-8-yl]amino]-2-methylbenzamide]  600 nM
6. CCc1cc(Nc2nccn3c(-c4ccc(OC(F)F)c(F)c4F)cnc23)ccc1C(=O)NC1(CN)CC1 [Example 29, N-[1-(aminomethyl)cyclopropyl]-4-[[3-[4-(difluoromethoxy)-2,3-difluorophenyl]imidazo[1,2-a]pyrazin-8-yl]amino]-2-ethylbenzamide;hydrochloride]  710 nM
7. COc1ccc(-c2cnc3c(Nc4ccc(C(=O)N(C)C5CCNCC5)c(Cl)c4)nccn23)cc1F [Example 20, 2-chloro-4-[[3-(3-fluoro-4-methoxyphenyl)imidazo[1,2-a]pyrazin-8-yl]amino]-N-methyl-N-piperidin-4-ylbenzamide;hydrochloride]  820 nM
8. COc1ccc(-c2cnc3c(Nc4ccc(C(=O)N(C)C5CCNCC5)c(C)c4)nccn23)cc1F [Example 21, 4-[[3-(3-fluoro-4-methoxyphenyl)imidazo[1,2-a]pyrazin-8-yl]amino]-N, 2-dimethyl-N-piperidin-4-ylbenzamide;hydrochloride]  1100 nM
9. Cc1cc(Nc2nccn3c(-c4ccc(OC(F)F)c(F)c4)cnc23)ccc1C(=O)N(C)C1CCNCC1 [Example 22, 4-[[3-[4-(difluoromethoxy)-3-fluorophenyl]imidazo[1,2-a]pyrazin-8-yI]amino]-N,2-dimethyl-N-piperidin-4-ylbenzamide;hydrochloride]  1300 nM
10. COc1ccc(-c2cnc3c(Nc4ccc(C(=O)Nc5ccc(C(=O)O)cc5)c(C)c4)nccn23)cc1F [Example 25, 4-[[4-[[3-(3-fluoro-4-methoxyphenyl)imidazo[1,2-a]pyrazin-8-yl]amino]-2-methylbenzoyl]amino] benzoic acid]  1500 nM
11. COc1ccc(-c2cnc3c(Nc4ccc(C(=O)NC5CCN(C)CC5)c(C)c4)nccn23)cc1 [Example 1, 4-((3-(4-methoxyphenyl)imidazo[1,2-a]pyrazin-8-yl)amino)-2-methyl-N-(1-methylpiperidin-4-yl)benzamide]  2200 nM
12. COc1ccc(-c2cnc3c(Nc4ccc(C(=O)N(C)[C@@H]5CNC[C@H]5O)c(C)c4)nccn23)cc1F [Example 17, 4-[[3-(3-fluoro-4-methoxyphenyl)imidazo[1,2-a]pyrazin-8-yl]amino]-N-[(3R,4R)-4-hydroxypyrrolidin-3-yl]-N,2-dimethylbenzamide;hydrochloride]  2600 nM
13. COc1ccc(-c2cnc3c(Nc4ccc(C(=O)N[C@H]5CCNC[C@H]5F)c(C)c4)nccn23)cc1F [Example 26, 4-[[3-(3-fluoro-4-methoxyphenyl)imidazo[1,2-a]pyrazin-8-yl]amino]-N-[(3R,4S)-3-fluoropiperidin-4-yl]-2-methylbenzamide;2,2,2-trifluoroacetic acid]  2700 nM
14. Cc1cc(Nc2nccn3c(-c4ccc(OC(F)F)cc4)cnc23)ccc1C(=O)NC1CN2CCC1CC2 (centres unmarked) [Example 2, 4-((3-(4-(difluoromethoxy)phenyl)imidazo[1,2-a]pyrazin-8-yl)amino)-2-methyl-N-(quinuclidin-3-yl)benzamide]  3200 nM
15. COc1ccc(-c2cnc3c(Nc4ccc(C(=O)N(C)C5CCN(C)CC5)c(C)c4)nccn23)cc1 [Example 15, 4-[[3-(4-methoxyphenyl)imidazo[1,2-a]pyrazin-8-yl]amino]-N,2-dimethyl-N-(1-methylpiperidin-4-yl)benzamide]  5300 nM
16. COc1ccc(-c2cnc3c(Nc4ccc(C(=O)N(C)C5CCN(C)CC5)cc4)nccn23)cc1 [Example 16, 4-[[3-(4-methoxyphenyl)imidazo[1,2-a]pyrazin-8-yl]amino]-N-methyl-N-(1-methylpiperidin-4-yl)benzamide]  5900 nM
17. Cc1cc(Nc2nccn3c(-c4ccc(OC(F)F)cc4)cnc23)ccc1C(=O)N[C@H]1[C@@H](O)[C@H](O)[C@@H](CO)O[C@@H]1O [Example 23, 4-[[3-[4-(difluoromethoxy)phenyl]imidazo[1,2-a]pyrazin-8-yl]amino]-2-methyl-N-[(2S,3S,4R,5S,6R)-2,4,5-trihydroxy-6-(hydroxymethyl)oxan-3-yl]benzamide]  8000 nM
